Measurements taken from US9359346B2, “Benzamide derivative and use thereof” (VIVOZON, INC., priority 2011, dated 2016).
Read-outs that look alike come from different tables or passages of the source.

Experiments:
[1] = test system: neuropathic pain model (Chung model); assay: Neuropathic pain model (Chung model, SNL), paw withdrawal threshold; type: in vivo, rat; details: for pain suppression efficacy, antagonist alone: single administration, ORG-25543 10 or 20 mg/kg, FIG. 25(a)
formalin model = assay: Formalin pain model, licking and shaking; type: in vivo, rat; details: for pain relieving effect, antagonist alone: single administration, FIG. 26(a); for pain behavior (licking and shaking) induced by formalin: 12.5, 25 and 50 mg/kg, 5% formalin i.pl., FIGS. 23 and 24
GlyT2 = target: T1, GlyT2 (Rattus norvegicus, UniProt P58295); assay: FLIPR membrane potential assay for GlyT2 target activity (T-rex-293-rGlyT2 cells); type: cell-based; details: read-out: GlyT2 % inhibition
T1 construct: expressed in transfected cells
T1 sequence (P58295 1-799): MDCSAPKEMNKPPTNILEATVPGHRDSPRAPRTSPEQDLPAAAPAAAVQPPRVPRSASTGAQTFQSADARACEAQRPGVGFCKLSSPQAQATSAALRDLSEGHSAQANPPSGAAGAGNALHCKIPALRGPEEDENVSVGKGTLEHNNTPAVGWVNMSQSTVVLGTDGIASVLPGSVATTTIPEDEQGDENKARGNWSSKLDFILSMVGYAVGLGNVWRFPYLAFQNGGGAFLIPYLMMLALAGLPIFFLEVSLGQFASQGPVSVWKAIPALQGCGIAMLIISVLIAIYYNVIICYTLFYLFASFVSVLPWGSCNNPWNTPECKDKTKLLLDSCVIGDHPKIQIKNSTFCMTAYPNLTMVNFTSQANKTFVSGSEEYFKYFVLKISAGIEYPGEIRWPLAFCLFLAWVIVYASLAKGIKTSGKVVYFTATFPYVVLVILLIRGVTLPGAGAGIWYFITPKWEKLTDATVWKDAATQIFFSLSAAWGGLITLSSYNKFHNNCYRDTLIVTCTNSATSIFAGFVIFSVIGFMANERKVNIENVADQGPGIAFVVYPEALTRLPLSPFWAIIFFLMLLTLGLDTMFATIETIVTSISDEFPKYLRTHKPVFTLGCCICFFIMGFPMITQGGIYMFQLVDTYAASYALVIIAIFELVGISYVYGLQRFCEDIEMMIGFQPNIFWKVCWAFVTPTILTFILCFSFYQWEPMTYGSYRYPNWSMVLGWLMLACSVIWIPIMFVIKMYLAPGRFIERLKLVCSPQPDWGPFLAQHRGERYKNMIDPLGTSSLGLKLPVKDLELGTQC
Protocol: GlyT2 (Glycine transporter type 2) is an electrogenic carrier associated with Na^+/Cl^− ion transportation, primarily distributed around the spinal cord part, and has an important role in the transfer of a pain signal in the spinal cord.
In order to identify the fact that the novel compound of the present invention has GlyT2 targeting activity, a membrane potential assay was performed. FLIPR Membrane Potential Assay is used to measure ion channel modulation caused by an increase or decrease in fluorescence signal due to variations of cellular membrane potential.
First, pcDNA4/TO vector encoding GlyT2 of the rat in HEK293 cell was transfected to prepare a stable recombinant cell line, i.e., T-rex-293-rGlyT2. A […] (Greiner #655090) coated with poly-D-lysine was prepared, and the above recombinant cells (T-rex-293-rGlyT2) were seeded at 3.2×10^4/well therein using a medium containing 15 μg/ml of tetracycline. After this, incubation was conducted at 37° C. for 48 hours under 5% CO2 conditions to express GlyT2. 10 ml of assay buffer (1×HBSS, 20 mM HEPES, pH 7.4) was added to a blue dye solution and sufficiently dissolved therein to prepare a membrane potential dye solution. After removing the medium from the well showing GlyT2 expression, the membrane potential dye solution was added to the well in an amount of 100 μl/well and incubated for 20 minutes.
According to the FLIPR Membrane Potential Assay kit's protocol, SoftMax Pro Software of FlexStation 3 software (Molecular Devices, US) was set up. An extent of GlyT2 expression was determined such that the extent of cellular membrane depolarization relative to an administered amount of glycine during glycine treatment is indicated in relative fluorescence units (RFU), and RFU (Max-Min) is calculated by subtracting the minimum value from the maximum value of RFU. After firstly treating 10 uM of the novel compound according to the present invention, glycine was treated and RFU (Max-Min) for glycine administration was determined. Then, with the determined result, the extent of depolarization inhibition (% inhibition) was assessed for each compound, compared to a positive control.
The positive control used herein was ORG25543 (500 nM) having strong inhibitory efficacy specific to GlyT2.
For GlyT2 inhibitory efficacy, the efficacy of the compound ORG25543 (500 nM) was defined as 100%. Similarly, for 5HT2A inhibitory efficacy, the efficacy of MDL11939 (100 nM) was defined as 100%. Therefore, the target inhibitory efficacy of each compound was indicated in a relative value compared to the above defined efficacy.

5HT2A = 5HT2A (Homo sapiens, UniProt P28223); assay: FLIPR calcium assay for 5HT2A target activity (transfected HEK293 cells); type: cell-based
[2] = test system: serotonin-derived itching; assay: Itching model, serotonin-derived itching; type: in vivo, rat; details: 50 mg/kg s.c.; serotonin 25 μg/50 μl intradermal; vs naloxone 5 mg/kg intraperitoneal
[3] = test system: poly-L-arginine-derived itching; assay: Itching model, poly-L-arginine-derived itching; type: in vivo, rat; details: 50 mg/kg s.c.; poly-L-arginine 200 μg/50 μl intradermal; vs naloxone 5 mg/kg intraperitoneal
[4] = HEK293, read-out: 5HT2A % inhibition
[5] = 10 uM compound, then glycine, relative to ORG25543 (500 nM) defined as 100%
[6] = subcutaneous 50 mg/kg or oral 100 mg/kg, gabapentin 55 to 70 mg/kg intraperitoneal, FIGS. 1 to 22
[7] = HEK293, 10 uM compound, then serotonin, relative to MDL11939 (100 nM) defined as 100%, read-out: 5HT2A % inhibition

Chain of 5HT2A (P28223 whole entry, species assumed): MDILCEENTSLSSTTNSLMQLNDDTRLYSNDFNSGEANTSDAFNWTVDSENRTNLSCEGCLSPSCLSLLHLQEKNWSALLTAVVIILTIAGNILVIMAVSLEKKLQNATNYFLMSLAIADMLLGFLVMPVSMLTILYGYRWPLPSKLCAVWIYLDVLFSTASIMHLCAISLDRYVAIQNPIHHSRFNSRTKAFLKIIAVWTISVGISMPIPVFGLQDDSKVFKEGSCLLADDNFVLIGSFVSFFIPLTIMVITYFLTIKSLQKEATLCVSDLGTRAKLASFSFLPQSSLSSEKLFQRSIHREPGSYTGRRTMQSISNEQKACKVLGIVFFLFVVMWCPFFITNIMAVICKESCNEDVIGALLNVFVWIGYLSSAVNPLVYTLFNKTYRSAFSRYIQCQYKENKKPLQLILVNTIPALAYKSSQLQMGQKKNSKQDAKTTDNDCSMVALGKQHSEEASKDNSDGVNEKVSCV

Q: How did the “pain suppression efficacy, antagonist alone” value (from here on “pain suppression efficacy”) [1] turn out when `OC(c1ccccc1)C1CCN(CCc2ccccc2)CC1` (stereo not shown) [MDL 11,939, reference compound] was run?
A: Its value is “no or very little pain relieving effect”.

Q: What about the “pain relieving effect, antagonist alone” value (formalin model) of the same compound?
A: Its value is “no or very little pain relieving effect”.

Q: Which “pain suppression efficacy” value [1] does the source give for `COc1cc(C(=O)NCC2(N(C)C)CCCC2)cc(OC)c1OCc1ccccc1` [ORG-25543, reference compound] here?
A: The value was “did not show pain suppression efficacy”.

Q: And the “pain suppression efficacy” value ([1]; listed as ORG2553)?
A: Its value is “no or very little pain relieving effect”.

Q: What about the “pain relieving effect, antagonist alone” value (formalin model) of the same compound?
A: The value was “no or very little pain relieving effect”.

Q: How did the inhibition at 10 µM (GlyT2) turn out when `CCCCOc1c(OC)cc(C(=O)NCC2(N(C)C)CCOCC2)cc1OC` [VVZ-005] was run?
A: Its inhibition at 10 µM is 101%.

Q: And the inhibition at 10 µM (5HT2A; [4])?
A: Its inhibition at 10 µM is 61.2%.

Q: And the “analgesic efficacy compared to GBP positive control” value ([1]; rat, in vivo)?
A: Its value is “analgesic efficacy substantially equal to 0 °C superior to GBP”.

Q: What about the “pain behavior (licking and shaking) induced by formalin” value (formalin model) of the same compound?
A: The value was “suppressing pain behavior induced by formalin”.

Q: What about the “itching behavior (number and duration of scratching) induced by serotonin” value [2] of the same compound?
A: Its value is “suppressing itching behavior”.

Q: What about the “itching behavior (number and duration of scratching) induced by poly-L-arginine” value [3] of the same compound?
A: The value was “suppressing itching behavior”.

Q: With `CCCCOc1c(OC)cc(C(=O)NCC(c2ccc(OC)cc2)N(C)C)cc1OC` (stereo not shown) [VVZ-024] as the compound, how does the inhibition at 10 µM (GlyT2; [5]) read?
A: The inhibition at 10 µM was 96.7%.

Q: And the inhibition at 10 µM (5HT2A; [4])?
A: Its inhibition at 10 µM is 70.5%.

Q: And the “analgesic efficacy compared to GBP positive control” value [1, 6]?
A: The value was “analgesic efficacy substantially equal to 0 °C superior to GBP”.

Q: How did the “analgesic efficacy compared to GBP positive control” value [1, 6] turn out when `CCCCOc1c(OC)cc(C(=O)Nc2nnc(C)s2)cc1OC` [VVZ-025] was run?
A: Its value is “analgesic efficacy substantially equal to 0 °C superior to GBP”.

Q: Which “analgesic efficacy compared to GBP positive control” value [1, 6] does the source give for `CCCCOc1c(OC)cc(C(=O)NCC2(N3CCN(C)CC3)CCCCC2)cc1OC` [VVZ-032] here?
A: Its value is “analgesic efficacy substantially equal to 0 °C superior to GBP”.

Q: For `CN(C)C1(CNC(=O)c2ccc(OCc3ccccc3)cc2)CCOCC1` [VVZ-038], which inhibition at 10 µM (GlyT2) is on record?
A: The inhibition at 10 µM was 108%.

Q: What about the inhibition at 10 µM (5HT2A; [4]) of the same compound?
A: Its inhibition at 10 µM is 96.1%.

Q: And the “analgesic efficacy compared to GBP positive control” value [1, 6]?
A: Its value is “analgesic efficacy substantially equal to 0 °C superior to GBP”.

Q: Which “analgesic efficacy compared to GBP positive control” value [1, 6] does the source give for `COc1cc(C(=O)NCC(=O)N2CCC(C)CC2)cc(OC)c1OCc1ccccc1` [VVZ-040] here?
A: The value was “analgesic efficacy substantially equal to 0 °C superior to GBP”.

Q: How did the inhibition at 10 µM (GlyT2; [5]) turn out when `CCCCOc1c(OC)cc(C(=O)NCC2(N(C)CC)CCOCC2)cc1OC` [VVZ-041] was run?
A: The inhibition at 10 µM was 79.2%.

Q: What about the inhibition at 10 µM (5HT2A; [7]) of the same compound?
A: The inhibition at 10 µM was 105%.

Q: And the “analgesic efficacy compared to GBP positive control” value [1, 6]?
A: Its value is “analgesic efficacy substantially equal to 0 °C superior to GBP”.

Q: How did the “analgesic efficacy compared to GBP positive control” value [1, 6] turn out when `CN(C)C1(CNC(=O)c2cccc(C(F)(F)F)c2)CCC(F)(F)CC1` [VVZ-062] was run?
A: The value was “analgesic efficacy substantially equal to 0 °C superior to GBP”.

Q: `CCCCOc1c(OC)cc(C(=O)NCC2(NC)CCOCC2)cc1OC` [VVZ-068] was tested. Which inhibition at 10 µM (GlyT2; [5]) did it give?
A: Its inhibition at 10 µM is 105%.

Q: What about the inhibition at 10 µM (5HT2A; [7]) of the same compound?
A: Its inhibition at 10 µM is 69.1%.

Q: What about the “analgesic efficacy compared to GBP positive control” value [1, 6] of the same compound?
A: The value was “analgesic efficacy substantially equal to 0 °C superior to GBP”.

Q: What about the “pain behavior (licking and shaking) induced by formalin” value (formalin model) of the same compound?
A: The value was “suppressing pain behavior induced by formalin”.

Q: What about the “itching behavior (number and duration of scratching) induced by serotonin” value [2] of the same compound?
A: Its value is “suppressing itching behavior”.

Q: And the “itching behavior (number and duration of scratching) induced by poly-L-arginine” value [3]?
A: The value was “suppressing itching behavior”.

Q: For `CN(C)C(CNC(=O)c1cccc(C(F)(F)F)c1)c1ccccc1` (stereo not shown) [VVZ-078], which “analgesic efficacy compared to GBP positive control” value [1, 6] is on record?
A: The value was “analgesic efficacy substantially equal to 0 °C superior to GBP”.
